# Experimental data as given in US20110077230A1, “COPPER ORGANOCOMPLEXES, USE THEREOF AS ANTITUMOR MEANS AND FOR PROTECTING HEALTHY TISSUE FROM IONIZING RADIATION” (CHARITE - UNIVERSITATSMEDIZIN BERLIN, priority 2008, published 2011).
# Legend:
# [1] = tested on: BJAB cells (lymphoma cell line); assay: Induction of apoptosis (DNA fragmentation, propidium iodide, FACS) in BJAB cells; assay type: cell-based, human; conditions: 0.1 mmol of complex A, 72 hours
# Experimental: BJAB cells (lymphoma cell line) at a concentration of 1×10^5/ml were treated with increasing concentrations of complex A dissolved in DMSO and incubated for 72 hours at 37° C. and 5% CO2. Following propidium iodide staining, the DNA fragments were detected using flow cytometry (FACS analysis). KO (untreated cell suspension) and DMSO were carried along in an equivalent treatment.
# BJAB cells = assay: Change in mitochondrial membrane potential (JC-1, flow cytometry) in BJAB cells; assay type: cell-based, human; conditions: 48 hours, concentration-dependent
# Experimental: Following treatment of the BJAB cells with different concentrations of complex A, carrying along a zero control and a solvent control, the cells were incubated for 48 hours at a temperature of 37° C. and 5% CO2. […] A concentration-dependent change of the mitochondrial membrane potential induced by complex A is found in more than 30% of the cells.
# [2] = tested on: Human lymphoma cells (BJAB); assay: In vivo inhibition of tumor growth, BJAB implanted in SCID mice; conditions: 10 mg/kg peroral, suspended in olive oil
# Experimental: Human lymphoma cells (BJAB) were implanted in six SCID mice. After a tumor with a diameter of 5 mm had formed, the mice were subjected to peroral treatment with complex A at a dose of 10 mg/kg, suspended in olive oil. The control group consisted of 10 animals treated with olive oil only.
# * denotes the significance (p≦0.05) in the Mann-Whitney U-test.
# melanoma B 16 = assay: B 16 melanoma in mice, intraabdominal administration; assay type: in vivo, mice of the line C 57Bl; conditions: for Average volume of tumor / Average weight of tumor: days 3, 5, 7, 9
# Experimental: The melanoma B 16 was implanted in 20 mice of the line C 57Bl by subcutaneous injection into the right thigh. The animals were divided into four groups of five mice each. Group I received complex A at a dosage of 7 mg/kg, dissolved in DMSO, which was administered intraabdominally in a 4% suspension in physiological saline. Each administration was performed 3, 5, 7 and 9 days after trans-plantation of the tumor.
# Group II was treated as group I, but using a dosage of 5 mg/kg.
# Group III was treated as group I, but received 5 mg/kg of melphalan hydrochloride instead of complex A.
# Group IV remained untreated.
# [3] = tested on: colon adenocarcinoma tumor (AKATOL); assay: Transplanted colon adenocarcinoma (AKATOL), peroral administration; assay type: in vivo, mice of the BALB line; conditions: for Average weight of tumor: days 3 to 10, day 21
# Experimental: Tumor cells were transplanted in mice of the BALB line by injection into the thighs. 3 of 4 groups received the respective preparation on the peroral route 3, 4, 5, 6, 7, 8, 9 and 10 days after tumor implantation.
# Group I: 10 mg/kg complex A suspended in olive oil.
# Group II: 5 mg/kg complex A suspended in olive oil.
# Group III: 10 mg/kg sarcolysine suspended in olive oil.
# On day 21 of the experiment the animals were sacrificed and examined.
# Walker carcinosarcoma = assay: Nitrosyl complexes of hem iron (EPR) in Walker carcinosarcoma; assay type: in vivo, rats; conditions: 30 mg/kg intraabdominally in liposomes, especially with hyperglycemia and ultrasound
# Description: The oxygen metabolism in malignant cells is affected in such a way that increased NO production in these cells results in increased binding of NO to the hem iron, thereby disturbing the normal function thereof. The formation of such NO bonds becomes manifest in the EPR spectrum as a characteristic triplet overlying a singlet.
# The effect of complex A on the concentration of Fe—NO bonds was investigated in an experiment using rats. The Walker carcinosarcoma was transplanted in the rats. 17 days after transplantation the animals were administered intraabdominally with complex A at a dosage of 30 mg/kg, suspended in liposomes from egg lecithin. Some of the animals also received glucose or glucose plus ultrasound.
# [4] = tested on: Ehrlich ascites carcinoma (EAC) cells; assay: NADH state (fluorescence) in EAC cells; assay type: cell-based, mice
# Experimental: (§1) The Ehrlich ascites carcinoma (EAC) was obtained from white male mice of the strain MNR1 and the thymocytes from the thymus of rats of the Wistar line. Vitality of the cells was tested by vital staining using trypan blue and experiments and determined to be no less than 95% in all experiments. The NADH state in the EAC cells was assessed with reference to their fluorescence intensity. Measurement of the intracellular calcium concentration was performed according to the standard methodology of fluorescence using chlortetracycline. The membrane potential was measured using the fluorescent dye No. 1104. NADH is a source of electrons in the oxidative phosphorylation process. […] These effects are directed to inhibiting the NAD-dependent dehydrogenase. As a result, the respiratory chain in the tumor cells is inhibited.
# thymocytes = assay: Membrane potential of thymocytes (fluorescent dye); assay type: cell-based, rats of the Wistar line
# Experimental: as §1
# Moreover, the complexes A and C have an influence on the membrane potential of thymocytes.
# [5] = tested on: hematopoietic cells in the spleen; assay: Radioprotective effect in irradiated mice; assay type: in vivo, white mice; conditions: 6 Gray; 5 mg/kg two hours prior to and three days after irradiation; day 9
# Experimental: White mice of no particular race were irradiated with a sublethal dose of 6 Gray. […] The animals were sacrificed on day 9 after irradiation, and the number of hematopoietic cells in the spleen was determined. No hematopoietic cells were detected in the spleen of untreated animals.
# neutrophils = assay: Antioxidant properties: ROS formation in neutrophils; assay type: cell-based, male mice of the NMRI line; conditions: triggered by PMA and fMLF, depending on the dosage
# Description: The complexes A and C show a pronounced effect as antioxidant in an environment having an excess of reactive oxygen species (ROS). Thus, ROS formation in neutrophils obtained from male mice of the NMRI line was triggered by two activators: phorbol 12-myristate 13-acetate (PMA) and N-formyl-methionyl-leucylphenylalanine (fMLF).
# [6] = tested on: Hep-2 tumor cells of human laryngeal carcinoma; assay: Copper uptake by Hep-2 cells (EPR); assay type: cell-based
# Experimental: Complex A dissolved in Tween 80 was mixed with liposomes from lecithin. This mixture was added with a culture of Hep-2 cells, and the EPR spectra were recorded over time. A culture having no complex A preparation was measured for comparison. The EPR spectra allow quantitative determination of the copper content in the tumor cells. […] This corresponds to an intake of 10 copper-containing molecules in a cell. This saturation value of the cells is reached within 1.5 to 2 hours (FIG. 21). In addition, the cell suspension was purified by filtration, and the filtrate containing the cellular components was fractionated using a centrifuge.
substance,measurement,setting,value
Copper-sarcolysine hydrochloride complex [complex A],"induction of apoptosis, % of the cells",[1],43.5%
same,cells with change of the mitochondrial membrane potential,BJAB cells,more than 30%
same,inhibition of tumor growth,[2],significant inhibition of tumor growth
same,Apoptotic index AI,melanoma B 16; 5 mg/kg intraabdominally,3.68 ‰
same,Bone marrow index MI BM,melanoma B 16; 5 mg/kg intraabdominally,3.975 ‰
same,"Inhibition of tumor growth, mass percent",melanoma B 16; 5 mg/kg intraabdominally,mass percent 84.44%
same,"Inhibition of tumor growth, volume percent",melanoma B 16; 5 mg/kg intraabdominally,volume percent 80.00%
same,Mitotic index of tumor cells MI,melanoma B 16; 5 mg/kg intraabdominally,2.175 ‰
same,Average volume of tumor,melanoma B 16; 5 mg/kg intraabdominally,0.436 cm^3
same,Average weight of tumor,melanoma B 16; 5 mg/kg intraabdominally,202.25 mg
same,Apoptotic index AI,melanoma B 16; 7 mg/kg intraabdominally,4.25 ‰
same,Bone marrow index MI BM,melanoma B 16; 7 mg/kg intraabdominally,3.575 ‰
same,"Inhibition of tumor growth, mass percent",melanoma B 16; 7 mg/kg intraabdominally,mass percent 89.5%
same,"Inhibition of tumor growth, volume percent",melanoma B 16; 7 mg/kg intraabdominally,volume percent 98.67%
same,Mitotic index of tumor cells MI,melanoma B 16; 7 mg/kg intraabdominally,1.3. ‰
same,Average volume of tumor,melanoma B 16; 7 mg/kg intraabdominally,0.029 cm^3
same,Average weight of tumor,melanoma B 16; 7 mg/kg intraabdominally,136.8 mg
same,% inhibition,[3]; 5 mg/kg peroral in olive oil,68%
same,Average weight of tumor,[3]; 5 mg/kg peroral in olive oil,1.04 g
same,% inhibition,[3]; 10 mg/kg peroral in olive oil,81.5%
same,Average weight of tumor,[3]; 10 mg/kg peroral in olive oil,0.71 g
same,concentration of Fe—NO bonds (EPR),Walker carcinosarcoma,significantly reduces
same,response to oligomycin,[4],reduce the response to oligomycin
same,influence on the membrane potential of thymocytes,thymocytes,hyperpolarization of the cell membranes
same,number of colonies of hematopoietic cells in the spleen,[5],about 40 colonies
same,formation of ROS in neutrophils,neutrophils,reduce or completely suppress
same,copper absorbed by Hep-2 cells,"[6]; complex A in Tween 80 with lecithin liposomes, saturation value",4.5×10^13 spin per gram
same,intake of copper-containing molecules in a cell,[6]; corresponds to the spin value,10 molecules in a cell
same,intracellular accumulation of the copper complex,"[6]; fractionated filtrate, EPR signal of copper",accumulated almost entirely in the nuclear chromatin
